Among the data in US10519154B2, “7-substituted 1-pyridyl-naphthyridine-3-carboxylic acid amides and use thereof” (Bayer Pharma Aktiengesellschaft, priority 2016, dated 2019) are EC50 and Emax values, retold here.

The test addresses T1, human M2 receptor (Homo sapiens, UniProt P08172).
T1 sequence (P08172 1-466): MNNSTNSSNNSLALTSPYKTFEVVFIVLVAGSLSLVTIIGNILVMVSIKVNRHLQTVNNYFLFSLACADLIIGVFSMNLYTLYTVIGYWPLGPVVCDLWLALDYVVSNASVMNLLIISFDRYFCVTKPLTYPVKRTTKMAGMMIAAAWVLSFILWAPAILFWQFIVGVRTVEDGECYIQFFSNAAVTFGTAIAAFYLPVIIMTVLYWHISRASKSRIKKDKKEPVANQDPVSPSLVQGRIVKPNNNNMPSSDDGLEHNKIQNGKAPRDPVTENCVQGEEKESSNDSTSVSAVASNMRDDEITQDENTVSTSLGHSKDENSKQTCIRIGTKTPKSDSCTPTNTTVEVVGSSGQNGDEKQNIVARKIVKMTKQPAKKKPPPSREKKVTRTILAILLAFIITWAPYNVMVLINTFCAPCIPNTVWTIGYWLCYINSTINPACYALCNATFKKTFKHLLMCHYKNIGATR
In words: Functional M2-GIRK1/4 activation test: allosteric potency (EC50) and efficiency. To be noted: for EC50: Receptor activity EC50, CHO-DUKX-M2-GIRK cells, acetylcholine at EC20, in some cases mean of two or more determinations; for Emax: read-out: Efficiency, boosting of the acetylcholine effect at EC20 acetylcholine concentration, CHO-DUKX-M2-GIRK cells.

Take `CC[C@H](NC(=O)c1cn(-c2ncc(F)cc2F)c2nc(N3CC(O)C3)ccc2c1=O)C(F)(F)F` [Example 133, 1-(3,5-Difluoropyridin-2-yl)-7-(3-hydroxyazetidin-1-yl)-4-oxo-N-[(2S)-1,1,1-trifluorobutan-2-yl]-1,4-dihydro-1,8-naphthyridine-3-carboxamide]: the EC50 (as a rule, the concentration needed to bring the measured effect to its halfway point) was determined as 315 nM and the Emax is 92%.

Regarding `O=C(N[C@H](C1CC1)C(F)(F)F)c1cn(-c2ncccc2F)c2nc(N3C[C@@H](O)CC3=O)ccc2c1=O` [Example 139, N-[(1R)-1-Cyclopropyl-2,2,2-trifluoroethyl]-1-(3-fluoropyridin-2-yl)-7-[(4S)-4-hydroxy-2-oxopyrrolidin-1-yl]-4-oxo-1,4-dihydro-1,8-naphthyridine-3-carboxamide], the EC50 was determined as 230 nM and the Emax came out at 100%.

Regarding `CCC(COC(F)(F)F)NC(=O)c1cn(-c2ncc(F)cc2F)c2nc(N3C[C@@H](C)NC3=O)ccc2c1=O` (stereo partly drawn) [Example 141, 1-(3,5-Difluoropyridin-2-yl)-7-[(4R)-4-methyl-2-oxoimidazolidin-1-yl]-4-oxo-N-[1-(trifluoromethoxy)butan-2-yl]-1,4-dihydro-1,8-naphthyridine-3-carboxamide], the EC50 was found to be 18 nM and the Emax stood at 95%.

As for `C[C@@H]1CN(c2ccc3c(=O)c(C(=O)N[C@@H](C4CC4)C(F)(F)F)cn(-c4ncc(F)cc4F)c3n2)C(=O)N1` [Example 142, N-[(1S)-1-cyclopropyl-2,2,2-trifluoroethyl]-1-(3,5-difluoropyridin-2-yl)-7-[(4R)-4-methyl-2-oxoimidazolidin-1-yl]-4-oxo-1,4-dihydro-1,8-naphthyridine-3-carboxamide], the EC50 was 47 nM and the Emax was found to be 94.5%.

Take `CC[C@H](NC(=O)c1cn(-c2ncc(F)cc2F)c2nc(N3C[C@@H](C)NC3=O)ccc2c1=O)C(F)(F)F` [Example 143, 1-(3,5-difluoropyridin-2-yl)-7-[(4R)-4-methyl-2-oxoimidazolidin-1-yl]-4-oxo-N-[(2S)-1,1,1-trifluorobutan-2-yl]-1,4-dihydro-1,8-naphthyridine-3-carboxamide]: the response was half-maximal at 90 nM (EC50) and the Emax stood at 90%.

In the case of `C[C@@H]1CN(c2ccc3c(=O)c(C(=O)NC(C)(C)C(F)F)cn(-c4ncc(F)cc4F)c3n2)C(=O)N1` [Example 144, N-(1,1-difluoro-2-methylpropan-2-yl)-1-(3,5-difluoropyridin-2-yl)-7-[(4R)-4-methyl-2-oxoimidazolidin-1-yl]-4-oxo-1,4-dihydro-1,8-naphthyridine-3-carboxamide], the EC50 was 150 nM and the Emax came out at 92%.

For `CC(C)(CC(F)(F)F)NC(=O)c1cn(-c2ncc(F)cc2F)c2nc(N3CCNC3=O)ccc2c1=O` [Example 145, 1-(3,5-Difluoropyridin-2-yl)-4-oxo-7-(2-oxoimidazolidin-1-yl)-N-(4,4,4-trifluoro-2-methylbutan-2-yl)-1,4-dihydro-1,8-naphthyridine-3-carboxamide], the EC50 worked out at 435 nM and the Emax turned out to be 98.5%.

For the molecule `O=C(NC1CCC1)c1cn(-c2ncc(F)cc2F)c2nc(N3CCNC3=O)ccc2c1=O` [Example 146, N-Cyclobutyl-1-(3,5-difluoropyridin-2-yl)-4-oxo-7-(2-oxoimidazolidin-1-yl)-1,4-dihydro-1,8-naphthyridine-3-carboxamide], the EC50 is 910 nM and the Emax came to 96%.

Consider `O=C(NC1(C(F)(F)F)CCC1)c1cn(-c2ncc(F)cc2F)c2nc(N3CCNC3=O)ccc2c1=O` [Example 150, 1-(3,5-Difluoropyridin-2-yl)-4-oxo-7-(2-oxoimidazolidin-1-yl)-N-[1-(trifluoromethyl)cyclobutyl]-1,4-dihydro-1,8-naphthyridine-3-carboxamide], for which it took 375 nM to reach a half-maximal effect (EC50) and the Emax stood at 88%.

For `O=C(NC1(C(F)(F)F)CCC1)c1cn(-c2ncc(F)cc2F)c2nc(N3C[C@@H](O)CC3=O)ccc2c1=O` [Example 151, 1-(3,5-Difluoropyridin-2-yl)-7-[(4S)-4-hydroxy-2-oxopyrrolidin-1-yl]-4-oxo-N-[1-(trifluoromethyl)cyclobutyl]-1,4-dihydro-1,8-naphthyridine-3-carboxamide], the EC50 was 290 nM and the Emax is 99%.

In the case of `CC(NC(=O)c1cn(-c2ncc(F)cc2F)c2nc(N3C[C@@H](O)[C@H](O)C3)ccc2c1=O)(C(F)(F)F)C(F)(F)F` [Example 152, 1-(3,5-Difluoropyridin-2-yl)-7-[(3R,4R)-3,4-dihydroxypyrrolidin-1-yl]-N-(1,1,1,3,3,3-hexafluoro-2-methylpropan-2-yl)-4-oxo-1,4-dihydro-1,8-naphthyridine-3-carboxamide], a half-maximal effect (EC50) was put at 103 nM and the Emax came to 99.5%.

Consider `CC(NC(=O)c1cn(-c2ncc(F)cc2F)c2nc(N3C[C@@H](O)[C@H](O)C3)ccc2c1=O)(C1CC1)C(F)(F)F` (some centres unmarked) [Example 153], for which the EC50 worked out at 200 nM and the Emax was found to be 100%.

As to `CC(C)C(NC(=O)c1cn(-c2ncc(F)cc2F)c2nc(N3C[C@@H](O)CC3=O)ccc2c1=O)C(F)(F)F` (stereo partly drawn) [Example 154, 1-(3,5-Difluoropyridin-2-yl)-7-[(4S)-4-hydroxy-2-oxopyrrolidin-1-yl]-4-oxo-N-[1,1,1-trifluoro-3-methylbutan-2-yl]-1,4-dihydro-1,8-naphthyridine-3-carboxamide], a half-maximal response (EC50) required 89 nM and the Emax is 100%.

Regarding `O=C(NC1(C(F)(F)F)CCC1)c1cn(-c2ncc(F)cc2F)c2nc(N3C[C@@H](O)[C@H](O)C3)ccc2c1=O` [Example 155, 1-(3,5-Difluoropyridin-2-yl)-7-[(3R,4R)-3,4-dihydroxypyrrolidin-1-yl]-4-oxo-N-[1-(trifluoromethyl)cyclobutyl]-1,4-dihydro-1,8-naphthyridine-3-carboxamide], the midpoint of the response, the EC50, lay at 360 nM and the Emax is 100%.

For `CC(C)C[C@@H](NC(=O)c1cn(-c2ncc(F)cc2F)c2nc(N3CCNC3=O)ccc2c1=O)C(F)(F)F` [Example 156, 1-(3,5-Difluoropyridin-2-yl)-4-oxo-7-(2-oxoimidazolidin-1-yl)-N-[-(2R)-1,1,1-trifluoro-4-methylpentan-2-yl]-1,4-dihydro-1,8-naphthyridine-3-carboxamide], the EC50 was 36 nM and the Emax stood at 100%.

For the molecule `CC(C)C[C@H](NC(=O)c1cn(-c2ncc(F)cc2F)c2nc(N3CCNC3=O)ccc2c1=O)C(F)(F)F` [Example 157, 1-(3,5-Difluoropyridin-2-yl)-4-oxo-7-(2-oxoimidazolidin-1-yl)-N-[(2S)-1,1,1-trifluoro-4-methylpentan-2-yl]-1,4-dihydro-1,8-naphthyridine-3-carboxamide], a half-maximal response (EC50) required 50 nM and the Emax came out at 100%.

As for `O=C(NC(C(F)(F)F)C(F)(F)F)c1cn(-c2ncc(F)cc2F)c2nc(N3CCNC3=O)ccc2c1=O` [Example 158, 1-(3,5-Difluoropyridin-2-yl)-N-(1,1,1,3,3,3-hexafluoropropan-2-yl)-4-oxo-7-(2-oxoimidazolidin-1-yl)-1,4-dihydro-1,8-naphthyridine-3-carboxamide], the EC50 stood at 115 nM and the Emax is 90.5%.

Regarding `O=C(NC(CC(F)(F)F)C(F)(F)F)c1cn(-c2ncc(F)cc2F)c2nc(N3C[C@@H](O)CC3=O)ccc2c1=O` (stereo partly drawn) [Example 159, 1-(3,5-Difluoropyridin-2-yl)-N-[1,1,1,4,4,4-hexafluorobutan-2-yl]-7-[(4S)-4-hydroxy-2-oxopyrrolidin-1-yl]-4-oxo-1,4-dihydro-1,8-naphthyridine-3-carboxamide], the EC50 is 94 nM and the Emax came out at 100%.

In the case of `O=C(NC(CC(F)(F)F)C(F)(F)F)c1cn(-c2ncc(F)cc2F)c2nc(N3C[C@@H](O)[C@H](O)C3)ccc2c1=O` (stereo partly drawn) [Example 160, 1-(3,5-Difluoropyridin-2-yl)-7-[(3R,4R)-3,4-dihydroxypyrrolidin-1-yl]-N-[1,1,1,4,4,4-hexafluorobutan-2-yl]-4-oxo-1,4-dihydro-1,8-naphthyridine-3-carboxamide], the EC50 is 155 nM and the Emax came to 90.5%.

With `O=C(N[C@@H](C1CC1)C(F)(F)F)c1cn(-c2ncc(F)cc2F)c2nc(N3CCN(CCO)C3=O)ccc2c1=O` [Example 167, N-[(1S)-1-Cyclopropyl-2,2,2-trifluoroethyl]-1-(3,5-difluoropyridin-2-yl)-7-[3-(2-hydroxyethyl)-2-oxoimidazolidin-1-yl]-4-oxo-1,4-dihydro-1,8-naphthyridine-3-carboxamide], it took 420 nM to reach a half-maximal effect (EC50) and the Emax is 92%.

Regarding `O=C(NC1CCC1)c1cn(-c2ncc(F)cc2F)c2nc(N3C[C@@H](O)[C@H](O)C3)ccc2c1=O` [Example 168, N-Cyclobutyl-1-(3,5-difluoropyridin-2-yl)-7-[(3R,4R)-3,4-dihydroxypyrrolidin-1-yl]-4-oxo-1,4-dihydro-1,8-naphthyridine-3-carboxamide], the EC50 came out at 2850 nM and the Emax stood at 84.5%.

As to `CC1(NC(=O)c2cn(-c3ncc(F)cc3F)c3nc(N4C[C@@H](O)[C@H](O)C4)ccc3c2=O)CC(F)(F)C1` [Example 170, N-(3,3-Difluoro-1-methylcyclobutyl)-1-(3,5-difluoropyridin-2-yl)-7-[(3R,4R)-3,4-dihydroxypyrrolidin-1-yl]-4-oxo-1,4-dihydro-1,8-naphthyridine-3-carboxamide], it took 2250 nM to reach a half-maximal effect (EC50) and the Emax was found to be 86%.
